The record followed here is patent US9981975B2, “Pyrrolotriazine compounds as tam inhibitors” (Incyte Corporation, priority 2016, dated 2018).

Structures are written as SMILES. Where only a bound is given, the exact number is not on record here.

What all share (format): biochemical
The target of one experiment is phosphor-Axl (Homo sapiens (Human), UniProt P30530). Put plainly: TAM Enzymatic Assay (HTRF), Axl. Conditions: recombinant autophosphorylated Axl, 60 min, room temperature.
The next experiment addresses c-Mer (Homo sapiens (Human), UniProt Q12866). As to the kind of experiment: TAM Enzymatic Assay (HTRF), Mer. Conditions: 60 min, room temperature. The gist of the method: (§1)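 HTRF kinase assay in 50 mM HEPES pH 7.5, 10 mM MgCl2, 1 mM EGTA, 0.01% NP-40, 2 mM DTT; compound in DMSO pre-dispensed, enzyme added, reaction started with substrate, 60 min at room temperature in the dark.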

The next experiment deals with Tyro3 (Homo sapiens (Human), UniProt Q06418). As to the kind of experiment: TAM Enzymatic Assay (HTRF), Tyro3. The conditions noted are these: Tyro3, 60 min, room temperature. The gist of the method:
as §1

Sequence of phosphor-Axl (P30530 26-894): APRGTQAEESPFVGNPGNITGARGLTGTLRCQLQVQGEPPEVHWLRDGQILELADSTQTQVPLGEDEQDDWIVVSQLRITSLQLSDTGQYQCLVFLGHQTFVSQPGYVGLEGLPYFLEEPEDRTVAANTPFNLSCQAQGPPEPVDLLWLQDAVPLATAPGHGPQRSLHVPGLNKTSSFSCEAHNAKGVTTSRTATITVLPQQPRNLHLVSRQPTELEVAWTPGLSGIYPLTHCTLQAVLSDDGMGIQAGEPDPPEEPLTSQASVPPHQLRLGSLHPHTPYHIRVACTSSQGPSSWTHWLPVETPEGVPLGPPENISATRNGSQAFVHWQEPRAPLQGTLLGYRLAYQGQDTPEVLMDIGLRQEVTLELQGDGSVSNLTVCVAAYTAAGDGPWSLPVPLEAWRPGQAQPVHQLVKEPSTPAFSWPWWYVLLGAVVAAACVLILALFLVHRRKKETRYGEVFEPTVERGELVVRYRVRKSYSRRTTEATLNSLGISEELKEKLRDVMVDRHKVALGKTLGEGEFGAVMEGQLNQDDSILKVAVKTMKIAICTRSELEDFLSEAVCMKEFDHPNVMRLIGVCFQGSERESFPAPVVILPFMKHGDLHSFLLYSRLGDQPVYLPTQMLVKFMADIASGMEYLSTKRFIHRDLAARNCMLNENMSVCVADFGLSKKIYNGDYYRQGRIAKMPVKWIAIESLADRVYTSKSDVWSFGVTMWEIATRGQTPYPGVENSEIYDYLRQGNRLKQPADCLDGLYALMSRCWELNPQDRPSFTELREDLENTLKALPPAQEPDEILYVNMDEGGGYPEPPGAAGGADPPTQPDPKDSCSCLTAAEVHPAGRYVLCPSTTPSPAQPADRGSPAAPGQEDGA
Sequence of c-Mer (Q12866 21-999): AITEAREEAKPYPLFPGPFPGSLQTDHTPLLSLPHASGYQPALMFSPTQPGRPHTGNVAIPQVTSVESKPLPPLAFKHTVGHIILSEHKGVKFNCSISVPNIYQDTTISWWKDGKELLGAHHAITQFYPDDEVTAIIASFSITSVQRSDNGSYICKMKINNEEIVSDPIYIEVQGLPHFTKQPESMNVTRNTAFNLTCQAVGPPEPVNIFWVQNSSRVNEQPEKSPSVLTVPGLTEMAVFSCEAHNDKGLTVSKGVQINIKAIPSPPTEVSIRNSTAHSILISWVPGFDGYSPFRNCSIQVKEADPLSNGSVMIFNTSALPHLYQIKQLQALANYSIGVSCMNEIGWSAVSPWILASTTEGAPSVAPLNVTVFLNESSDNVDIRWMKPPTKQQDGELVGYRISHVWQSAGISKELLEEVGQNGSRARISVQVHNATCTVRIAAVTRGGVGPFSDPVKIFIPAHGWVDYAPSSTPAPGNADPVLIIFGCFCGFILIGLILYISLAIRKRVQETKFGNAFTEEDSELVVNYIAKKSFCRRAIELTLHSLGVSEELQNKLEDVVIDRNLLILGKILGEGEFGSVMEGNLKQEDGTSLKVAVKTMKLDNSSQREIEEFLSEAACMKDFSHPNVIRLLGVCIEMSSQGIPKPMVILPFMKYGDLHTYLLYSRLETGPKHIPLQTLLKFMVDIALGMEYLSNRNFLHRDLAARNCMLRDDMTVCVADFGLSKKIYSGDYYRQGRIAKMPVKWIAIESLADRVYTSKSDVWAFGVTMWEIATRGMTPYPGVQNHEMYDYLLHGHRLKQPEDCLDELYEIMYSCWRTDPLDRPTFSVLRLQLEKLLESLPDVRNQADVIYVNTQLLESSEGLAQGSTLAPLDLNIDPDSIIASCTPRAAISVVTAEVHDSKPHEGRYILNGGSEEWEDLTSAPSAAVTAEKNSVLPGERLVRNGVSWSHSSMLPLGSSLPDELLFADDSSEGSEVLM
Sequence of Tyro3 (Q06418 41-890): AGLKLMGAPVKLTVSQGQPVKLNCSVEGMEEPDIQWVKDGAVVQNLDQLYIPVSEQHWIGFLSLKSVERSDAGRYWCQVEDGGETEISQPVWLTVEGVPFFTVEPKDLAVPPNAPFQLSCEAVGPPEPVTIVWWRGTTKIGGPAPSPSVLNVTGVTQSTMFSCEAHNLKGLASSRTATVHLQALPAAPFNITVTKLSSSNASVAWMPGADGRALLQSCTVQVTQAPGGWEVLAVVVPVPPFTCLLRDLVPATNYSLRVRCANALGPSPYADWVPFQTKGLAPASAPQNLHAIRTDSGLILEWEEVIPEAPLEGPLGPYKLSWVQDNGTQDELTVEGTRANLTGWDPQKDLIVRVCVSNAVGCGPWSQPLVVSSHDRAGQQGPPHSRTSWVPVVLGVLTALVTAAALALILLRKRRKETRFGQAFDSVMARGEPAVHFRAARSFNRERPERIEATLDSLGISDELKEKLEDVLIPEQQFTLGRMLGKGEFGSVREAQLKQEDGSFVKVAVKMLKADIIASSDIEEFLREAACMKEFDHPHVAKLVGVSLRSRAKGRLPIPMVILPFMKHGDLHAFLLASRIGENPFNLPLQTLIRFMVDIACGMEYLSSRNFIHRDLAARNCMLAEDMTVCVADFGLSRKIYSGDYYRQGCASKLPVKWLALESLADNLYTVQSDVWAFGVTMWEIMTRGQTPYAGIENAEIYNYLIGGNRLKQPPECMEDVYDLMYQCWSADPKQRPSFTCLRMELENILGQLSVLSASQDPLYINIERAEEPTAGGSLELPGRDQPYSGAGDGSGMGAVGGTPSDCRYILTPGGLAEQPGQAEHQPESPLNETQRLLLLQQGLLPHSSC

Consider `N#C[C@H]1CC[C@@H](c2cc(-c3ccc(NC(=O)c4cccn(-c5ccccc5)c4=O)cc3)c3c(N)ncnn32)CC1` [Example 28, N-{4-[4-Amino-7-(cis-4-cyanocyclohexyl)pyrrolo[2,1-f][1,2,4]triazin-5-yl]phenyl}-2-oxo-1-phenyl-1,2-dihydropyridine-3-carboxamide], for which the values for the IC50 at phosphor-Axl, on c-Mer and on Tyro3 were not above 5 nM, not above 5 nM and more than 100 nM, respectively.
As to `CN1CCC(c2cc(-c3ccc(NC(=O)c4cccn(-c5ccc(F)cc5)c4=O)cc3F)c3c(N)ncnn23)CC1` [Example 23, N-{4-[4-Amino-7-(1-methylpiperidin-4-yl)pyrrolo[2,1-f][1,2,4]triazin-5-yl]-3-fluorophenyl}-1-(4-fluorophenyl)-2-oxo-1,2-dihydropyridine-3-carboxamide], the IC50 on phosphor-Axl is not above 5 nM; at c-Mer it was not above 5 nM; on Tyro3, 10 to 100 nM.
For the compound `CC(C)C(=O)N1CCC(c2cc(-c3ccc(NC(=O)c4cn(C(C)C)c(=O)n(-c5ccn(C)n5)c4=O)cc3)c3c(N)ncnn23)CC1` [Example 88, N-(4-(4-Amino-7-(1-isobutyrylpiperidin-4-yl)pyrrolo[2,1-f][1,2,4]triazin-5-yl)phenyl)-1-isopropyl-3-(1-methyl-1H-pyrazol-3-yl)-2,4-dioxo-1,2,3,4-tetrahydropyrimidine-5-carboxamide], the values for the concentration for half-maximal inhibition (IC50) at phosphor-Axl, against c-Mer and on Tyro3 were not above 5 nM, not above 5 nM and 10 to 100 nM, respectively.
`Nc1ncnn2c(C3CCN(CCO)CC3)cc(-c3ccc(NC(=O)c4cccn(-c5ccc(F)cc5)c4=O)cc3F)c12` [Example 55]: the IC50 is not above 5 nM at phosphor-Axl, not above 5 nM against c-Mer and 5 to 10 nM against Tyro3.
With `Nc1ncnn2c(C3CCN(CCO)CC3)cc(-c3ccc(NC(=O)c4cccn(-c5ccccc5)c4=O)cc3F)c12` [Example 54], the IC50 at phosphor-Axl is not above 5 nM; on c-Mer, not above 5 nM; against Tyro3 it was 10 to 100 nM.
`Cc1c(C#N)cc(C(=O)Nc2ccc(-c3cc(C4CCN(C(=O)C(C)C)CC4)n4ncnc(N)c34)cc2)c(=O)n1-c1ccccc1` [Example 111, N-(4-(4-Amino-7-(1-isobutyrylpiperidin-4-yl)pyrrolo[2,1-f][1,2,4]triazin-5-yl)phenyl)-5-cyano-6-methyl-2-oxo-1-phenyl-1,2-dihydropyridine-3-carboxamide]: the concentration for half-maximal inhibition (IC50) on phosphor-Axl is not above 5 nM; on c-Mer it was not above 5 nM; on Tyro3, more than 100 nM.
Take `COCCN1CCC(c2cc(-c3ccc(NC(=O)c4cccn(-c5ccc(F)cc5)c4=O)cc3F)c3c(N)ncnn23)CC1` [Example 51, N-(4-{4-Amino-7-[1-(2-methoxyethyl)piperidin-4-yl]pyrrolo[2,1-f][1,2,4]triazin-5-yl}-3-fluorophenyl)-1-(4-fluorophenyl)-2-oxo-1,2-dihydropyridine-3-carboxamide]: the results for the concentration for half-maximal inhibition (IC50) on phosphor-Axl, on c-Mer and against Tyro3 were not above 5 nM, not above 5 nM and 5 to 10 nM, respectively.
Regarding `COCCN1CCC(c2cc(-c3ccc(NC(=O)c4cccn(-c5ccc(F)cc5)c4=O)cc3)c3c(N)ncnn23)CC1` [Example 49, N-(4-{4-Amino-7-[1-(2-methoxyethyl)piperidin-4-yl]pyrrolo[2,1-f][1,2,4]triazin-5-yl}phenyl)-1-(4-fluorophenyl)-2-oxo-1,2-dihydropyridine-3-carboxamide], the 50% inhibitory concentration (IC50) on phosphor-Axl is not above 5 nM; at c-Mer, not above 5 nM; against Tyro3, 10 to 100 nM.
For the compound `CC(C)n1cc(C(=O)Nc2ccc(-c3cc(C4CCN(C(=O)N(C)C)CC4)n4ncnc(N)c34)cc2)c(=O)n(-c2ccc(F)cc2)c1=O` [Example 65, N-(4-(4-Amino-7-(1-(dimethylcarbamoyl)piperidin-4-yl)pyrrolo[1,2-f][1,2,4]triazin-5-yl)phenyl)-3-(4-fluorophenyl)-1-isopropyl-2,4-dioxo-1,2,3,4-tetrahydropyrimidine-5-carboxamide], the half-inhibitory concentration (IC50) is not above 5 nM on phosphor-Axl, not above 5 nM on c-Mer and 10 to 100 nM against Tyro3.
For the compound `CC(=O)N1CCC(c2cc(-c3ccc(NC(=O)c4cccn(-c5ccc(F)cc5)c4=O)cc3F)c3c(N)ncnn23)CC1` [Example 27, N-{4-[7-(1-Acetylpiperidin-4-yl)-4-aminopyrrolo[2,1-f][1,2,4]triazin-5-yl]-3-fluorophenyl}-1-(4-fluorophenyl)-2-oxo-1,2-dihydropyridine-3-carboxamide], the figures for the IC50 on phosphor-Axl, on c-Mer and against Tyro3 were not above 5 nM, not above 5 nM and 10 to 100 nM, respectively.
Consider `COCc1c(Br)cc(C(=O)Nc2ccc(-c3cc(C4CCN(C(=O)C(C)C)CC4)n4ncnc(N)c34)cc2)c(=O)n1-c1ccccc1` [Example 136, N-(4-(4-Amino-7-(1-isobutyrylpiperidin-4-yl)pyrrolo[2,1-f][1,2,4]triazin-5-yl)phenyl)-5-bromo-6-(methoxymethyl)-2-oxo-1-phenyl-1,2-dihydropyridine-3-carboxamide], for which the results for the half-inhibitory concentration (IC50) at phosphor-Axl, against c-Mer and at Tyro3 were not above 5 nM, not above 5 nM and more than 100 nM, respectively.
`COCCN1CCC(c2cc(-c3ccc(NC(=O)c4cccn(-c5ccccc5)c4=O)cc3F)c3c(N)ncnn23)CC1` [Example 50, N-(4-{4-Amino-7-[1-(2-methoxyethyl)piperidin-4-yl]pyrrolo[2,1-f][1,2,4]triazin-5-yl}-3-fluorophenyl)-2-oxo-1-phenyl-1,2-dihydropyridine-3-carboxamide]: the IC50 at phosphor-Axl was not above 5 nM; at c-Mer, not above 5 nM; on Tyro3 it was 10 to 100 nM.
As for `CC(C)C(=O)N1CCC(c2cc(-c3ccc(NC(=O)c4cc5c(n(-c6cccnc6)c4=O)CC(C)(C)CC5=O)cc3)c3c(N)ncnn23)CC1` [Example 114, N-(4-(4-Amino-7-(1-isobutyrylpiperidin-4-yl)pyrrolo[1,2-f][1,2,4]triazin-5-yl)phenyl)-7,7-dimethyl-2,5-dioxo-1-(pyridin-3-yl)-1,2,5,6,7,8-hexahydroquinoline-3-carboxamide], the IC50 at phosphor-Axl is not above 5 nM; against c-Mer it was not above 5 nM; at Tyro3 it was 10 to 100 nM.
For `CN(C)C(=O)N1CCC(c2cc(-c3ccc(NC(=O)c4cccn(-c5ccc(F)cc5)c4=O)cc3F)c3c(N)ncnn23)CC1` [Example 47, N-[4-(4-Amino-7-{1-[(dimethylamino)carbonyl]piperidin-4-yl}pyrrolo[2,1-f][1,2,4]triazin-5-yl)-3-fluorophenyl]-1-(4-fluorophenyl)-2-oxo-1,2-dihydropyridine-3-carboxamide], the IC50 on phosphor-Axl is not above 5 nM; on c-Mer, not above 5 nM; on Tyro3, 10 to 100 nM.
Turning to `Cc1c(-c2ncccn2)cc(C(=O)Nc2ccc(-c3cc(C4CCN(C)CC4)n4ncnc(N)c34)cc2)c(=O)n1-c1ccccc1` [Example 109], the IC50 on phosphor-Axl is not above 5 nM; at c-Mer it was not above 5 nM; against Tyro3 it was 5 to 10 nM.
On to `CC(=O)N1CCC(c2cc(-c3ccc(NC(=O)c4cccn(-c5ccc(F)cc5)c4=O)cc3)c3c(N)ncnn23)CC1` [Example 25, N-{4-[7-(1-Acetylpiperidin-4-yl)-4-aminopyrrolo[2,1-f][1,2,4]triazin-5-yl]phenyl}-1-(4-fluorophenyl)-2-oxo-1,2-dihydropyridine-3-carboxamide], for which the half-inhibitory concentration (IC50) was not above 5 nM at phosphor-Axl, not above 5 nM on c-Mer and 10 to 100 nM at Tyro3.
With `N#C[C@H]1CC[C@@H](c2cc(-c3ccc(NC(=O)c4cccn(-c5ccccc5)c4=O)cc3F)c3c(N)ncnn32)CC1` [Example 30, N-{4-[4-Amino-7-(cis-4-cyanocyclohexyl)pyrrolo[2,1-f][1,2,4]triazin-5-yl]-3-fluorophenyl}-2-oxo-1-phenyl-1,2-dihydropyridine-3-carboxamide], the IC50 on phosphor-Axl was not above 5 nM; on c-Mer, not above 5 nM; against Tyro3, 10 to 100 nM.
Turning to `N#C[C@H]1CC[C@@H](c2cc(-c3ccc(NC(=O)c4cccn(-c5ccc(F)cc5)c4=O)cc3)c3c(N)ncnn32)CC1` [Example 29, N-{4-[4-Amino-7-(cis-4-cyanocyclohexyl)pyrrolo[2,1-f][1,2,4]triazin-5-yl]phenyl}-1-(4-fluorophenyl)-2-oxo-1,2-dihydropyridine-3-carboxamide], the IC50 on phosphor-Axl was not above 5 nM; against c-Mer, not above 5 nM; against Tyro3, 10 to 100 nM.
In the case of `CC(C)n1cc(C(=O)Nc2ccc(-c3cc(C4CCN(CC(=O)N(C)C)CC4)n4ncnc(N)c34)cc2)c(=O)n(-c2ccccc2)c1=O` [Example 81, N-(4-(4-Amino-7-(1-(2-(dimethylamino)-2-oxoethyl)piperidin-4-yl)pyrrolo[1,2-f][1,2,4]triazin-5-yl)phenyl)-1-isopropyl-2,4-dioxo-3-phenyl-1,2,3,4-tetrahydropyrimidine-5-carboxamide], the IC50 at phosphor-Axl is not above 5 nM; at c-Mer, not above 5 nM; against Tyro3 it was 10 to 100 nM.
In the case of `Cc1c(Br)cc(C(=O)Nc2ccc(-c3cc(C4CCN(C(=O)C(C)C)CC4)n4ncnc(N)c34)cc2)c(=O)n1-c1cncc(F)c1` [Example 101, N-(4-(4-Amino-7-(1-isobutyrylpiperidin-4-yl)pyrrolo[1,2-f][1,2,4]triazin-5-yl)phenyl)-5-bromo-1-(5-fluoropyridin-3-yl)-6-methyl-2-oxo-1,2-dihydropyridine-3-carboxamide], the values for the IC50 on phosphor-Axl, at c-Mer and on Tyro3 were not above 5 nM, not above 5 nM and more than 100 nM, respectively.
Take `Nc1ncnn2c(C3CCNCC3)cc(-c3ccc(NC(=O)c4cccn(-c5ccc(F)cc5)c4=O)cc3F)c12` [Example 35, N-[4-(4-Amino-7-piperidin-4-ylpyrrolo[2,1-f][1,2,4]triazin-5-yl)-3-fluorophenyl]-1-(4-fluorophenyl)-2-oxo-1,2-dihydropyridine-3-carboxamide]: the values for the half-maximal inhibitory concentration (IC50) at phosphor-Axl, against c-Mer and against Tyro3 were not above 5 nM, not above 5 nM and 5 to 10 nM, respectively.
